Where a SMILES comes first, the peptide text is derived from it. [ ]: non-standard residue; d: D form. The star is where a group is joined. dPhe(4-NHCONH2) = NC(=O)Nc1ccc(C[C@@H](N)C(=O)O)cc1; Dihydroorotyl(S) = O=C1C[C@@H](C(=O)*)NC(=O)N1; dPhe(4-Cl) = N[C@H](Cc1ccc(Cl)cc1)C(=O)O; Phe(4-NH2) = Nc1ccc(C[C@H](N)C(=O)O)cc1; d2Nal = N[C@H](Cc1ccc2ccccc2c1)C(=O)O; Lys(iPr) = CC(C)NCCCC[C@H](N)C(=O)O; d3Pal = N[C@H](Cc1cccnc1)C(=O)O
Key:
[1] = molecular target: Endonuclease 8-like 1 (Homo sapiens) (UniProt Q96FI4); details: Compound Concentration 10.0 uM, Hit No;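 further: fluorescence at 594 nm from quenched duplex DNA oligonucleotides released by NEIL1 cleavage and strand separation, reported as reduction of this enzyme activity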
Sequence of Endonuclease 8-like 1 (Homo sapiens) (Q96FI4 whole entry): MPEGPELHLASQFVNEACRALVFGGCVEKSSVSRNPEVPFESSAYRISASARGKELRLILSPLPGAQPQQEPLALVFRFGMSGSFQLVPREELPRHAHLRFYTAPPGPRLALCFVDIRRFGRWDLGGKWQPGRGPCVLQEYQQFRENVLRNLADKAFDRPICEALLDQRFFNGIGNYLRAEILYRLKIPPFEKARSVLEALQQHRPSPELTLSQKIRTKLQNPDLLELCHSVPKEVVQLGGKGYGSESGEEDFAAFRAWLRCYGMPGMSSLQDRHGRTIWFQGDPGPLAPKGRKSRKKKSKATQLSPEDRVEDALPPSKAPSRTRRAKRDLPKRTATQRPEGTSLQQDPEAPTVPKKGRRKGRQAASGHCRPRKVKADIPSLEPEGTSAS
Description: Inhibition of NEIL1 by quantifying inhibition of NEIL1-mediated cleavage and dissociation of quenched duplex DNA oligonucleotides, measured as fluorescence at 594 nm.

[2] = molecular target: T1, Single-strand selective monofunctional uracil DNA glycosylase (Homo sapiens) (UniProt Q53HV7); details: Compound Concentration 10.0 uM;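 further: enzymatic SMUG1 assay coupled with APE1, reading fluorescence at 594 nm released when a quenched double-stranded DNA oligonucleotide substrate is cleaved and separated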
T1 sequence (whole entry): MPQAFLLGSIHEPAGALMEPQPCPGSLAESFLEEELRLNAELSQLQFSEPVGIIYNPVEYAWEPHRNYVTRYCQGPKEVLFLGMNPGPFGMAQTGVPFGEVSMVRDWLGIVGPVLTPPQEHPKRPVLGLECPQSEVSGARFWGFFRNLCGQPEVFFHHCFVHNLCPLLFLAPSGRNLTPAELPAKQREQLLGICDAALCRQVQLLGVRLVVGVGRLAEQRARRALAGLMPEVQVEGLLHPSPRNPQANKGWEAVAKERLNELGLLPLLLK
Description: Inhibition of SMUG1 by quantifying inhibition of SMUG1-mediated cleavage and dissociation of quenched duplex DNA oligonucleotides, measured as fluorescence at 594 nm. To generate a functional strand incision and increase turn-over this assay is coupled to APE1.

[3] = molecular target: G/T mismatch-specific thymine DNA glycosylase (Homo sapiens) (UniProt Q13569); details: Compound Concentration 10.0 uM, Hit No;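 further: human TDG cleavage of quenched duplex DNA oligonucleotides coupled to APE1, strand release read as fluorescence at 594 nm, inhibition of TDG activity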
Sequence of G/T mismatch-specific thymine DNA glycosylase (Homo sapiens) (Q13569 whole entry): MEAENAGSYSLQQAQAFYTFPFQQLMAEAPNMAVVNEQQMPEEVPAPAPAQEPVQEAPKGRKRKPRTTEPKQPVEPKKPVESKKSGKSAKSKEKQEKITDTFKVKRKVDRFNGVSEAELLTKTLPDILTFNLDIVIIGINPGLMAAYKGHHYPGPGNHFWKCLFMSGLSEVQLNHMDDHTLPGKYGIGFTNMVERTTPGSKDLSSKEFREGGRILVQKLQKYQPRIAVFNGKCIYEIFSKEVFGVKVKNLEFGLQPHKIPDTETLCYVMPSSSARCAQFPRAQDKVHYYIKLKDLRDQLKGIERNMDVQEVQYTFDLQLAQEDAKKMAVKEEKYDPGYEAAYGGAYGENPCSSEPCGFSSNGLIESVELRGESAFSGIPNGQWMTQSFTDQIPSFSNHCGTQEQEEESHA
Description: Inhibition of TDG by quantifying inhibition of TDG-mediated cleavage and dissociation of quenched duplex DNA oligonucleotides, measured as fluorescence at 594 nm. To generate a functional strand incision and increase turn-over this assay is coupled to APE1.

[4] = molecular target: T2, Endonuclease 8-like 2 (Homo sapiens) (UniProt Q969S2); details: Compound Concentration 10.0 uM, Hit No;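 further: fluorescence at 594 nm reports NEIL2 cutting and release of a quenched double-stranded DNA oligo substrate, reduced signal read as inhibition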
T2 sequence (whole entry): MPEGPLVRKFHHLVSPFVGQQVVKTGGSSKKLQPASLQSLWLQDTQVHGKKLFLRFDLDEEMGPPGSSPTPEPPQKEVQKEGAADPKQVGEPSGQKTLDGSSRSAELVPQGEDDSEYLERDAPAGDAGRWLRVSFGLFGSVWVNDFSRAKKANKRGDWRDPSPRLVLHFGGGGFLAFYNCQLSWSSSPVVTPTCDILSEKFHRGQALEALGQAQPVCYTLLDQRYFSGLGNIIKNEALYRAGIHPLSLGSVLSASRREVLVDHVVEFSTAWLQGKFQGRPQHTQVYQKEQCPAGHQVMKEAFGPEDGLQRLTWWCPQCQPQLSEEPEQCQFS
Description: Inhibition of NEIL2 by quantifying inhibition of NEIL2-mediated cleavage and dissociation of quenched duplex DNA oligonucleotides, measured as fluorescence at 594 nm.

[5] = molecular target: N-glycosylase/DNA lyase (Homo sapiens) (UniProt O15527); details: Compound Concentration 10.0 uM;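 further: OGG1 cleavage of a quenched duplex DNA oligonucleotide, coupled to APE1 for strand incision, read as fluorescence at 594 nm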
Sequence of N-glycosylase/DNA lyase (Homo sapiens) (O15527 whole entry): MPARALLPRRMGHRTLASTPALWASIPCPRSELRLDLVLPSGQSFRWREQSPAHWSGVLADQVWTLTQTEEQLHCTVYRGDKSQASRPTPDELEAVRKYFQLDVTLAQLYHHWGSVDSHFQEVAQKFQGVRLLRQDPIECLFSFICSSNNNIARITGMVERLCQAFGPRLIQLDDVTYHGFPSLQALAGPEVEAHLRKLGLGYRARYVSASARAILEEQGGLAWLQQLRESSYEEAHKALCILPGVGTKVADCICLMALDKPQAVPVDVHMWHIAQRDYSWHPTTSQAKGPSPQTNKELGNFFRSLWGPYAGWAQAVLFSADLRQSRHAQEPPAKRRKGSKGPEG
Description: Inhibition of OGG1 by quantifying inhibition of OGG1-mediated cleavage and dissociation of quenched duplex DNA oligonucleotides, measured as fluorescence at 594 nm. To generate a functional strand incision and increase turn-over this assay is coupled to APE1.

[6] = molecular target: DNA-3-methyladenine glycosylase (Homo sapiens) (UniProt P29372); details: Compound Concentration 10.0 uM, Hit No;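 further: enzyme assay where MPG cuts a quenched duplex DNA oligonucleotide probe, paired with APE1 for strand incision and turnover, read as fluorescence at 594 nm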
Sequence of DNA-3-methyladenine glycosylase (Homo sapiens) (P29372 whole entry, the tested form may be a part): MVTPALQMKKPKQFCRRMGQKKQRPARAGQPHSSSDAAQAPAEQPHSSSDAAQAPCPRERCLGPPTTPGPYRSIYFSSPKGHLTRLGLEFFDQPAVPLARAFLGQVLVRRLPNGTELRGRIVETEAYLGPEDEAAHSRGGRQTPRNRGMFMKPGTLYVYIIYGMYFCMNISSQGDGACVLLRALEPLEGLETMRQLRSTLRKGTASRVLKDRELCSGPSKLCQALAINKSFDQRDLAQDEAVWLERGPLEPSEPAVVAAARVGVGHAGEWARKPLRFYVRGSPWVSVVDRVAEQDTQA
Description: Inhibition of MPG by quantifying inhibition of MPG-mediated cleavage and dissociation of quenched duplex DNA oligonucleotides, measured as fluorescence at 594 nm. To generate a functional strand incision and increase turn-over this assay is coupled to APE1.

[7] = molecular target: Methyl-CpG-binding domain protein 4 (Homo sapiens) (UniProt O95243); details: Compound Concentration 10.0 uM;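 further: MBD4 activity read as fluorescence at 594 nm from cleavage and release of a quenched duplex DNA oligonucleotide, with APE1 coupled to incise the strand and raise turnover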
Sequence of Methyl-CpG-binding domain protein 4 (Homo sapiens) (O95243 whole entry, the tested form may be a part): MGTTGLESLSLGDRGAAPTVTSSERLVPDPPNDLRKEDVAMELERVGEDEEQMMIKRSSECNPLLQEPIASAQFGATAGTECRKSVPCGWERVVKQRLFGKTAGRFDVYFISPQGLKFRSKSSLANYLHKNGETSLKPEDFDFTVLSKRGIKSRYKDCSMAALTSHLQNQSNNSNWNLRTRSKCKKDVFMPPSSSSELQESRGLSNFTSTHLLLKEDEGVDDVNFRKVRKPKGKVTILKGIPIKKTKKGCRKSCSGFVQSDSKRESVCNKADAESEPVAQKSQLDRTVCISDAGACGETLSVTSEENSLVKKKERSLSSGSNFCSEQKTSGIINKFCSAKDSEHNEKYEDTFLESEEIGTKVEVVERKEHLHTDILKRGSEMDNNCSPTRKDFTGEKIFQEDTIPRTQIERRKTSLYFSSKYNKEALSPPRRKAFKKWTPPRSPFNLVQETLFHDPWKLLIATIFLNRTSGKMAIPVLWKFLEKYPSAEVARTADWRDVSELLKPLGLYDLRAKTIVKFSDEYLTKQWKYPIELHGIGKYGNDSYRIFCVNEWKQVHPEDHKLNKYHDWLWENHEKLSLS
Description: Inhibition of MBD4 by quantifying inhibition of MBD4-mediated cleavage and dissociation of quenched duplex DNA oligonucleotides, measured as fluorescence at 594 nm. To generate a functional strand incision and increase turn-over this assay is coupled to APE1.

[8] = molecular target: Uracil-DNA glycosylase (Homo sapiens) (UniProt P13051); details: Compound Concentration 10.0 uM;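 further: UNG excision on a quenched double-stranded DNA oligo probe, with APE1 added for strand incision and turnover, read as fluorescence at 594 nm as strands separate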
Sequence of Uracil-DNA glycosylase (Homo sapiens) (P13051 whole entry): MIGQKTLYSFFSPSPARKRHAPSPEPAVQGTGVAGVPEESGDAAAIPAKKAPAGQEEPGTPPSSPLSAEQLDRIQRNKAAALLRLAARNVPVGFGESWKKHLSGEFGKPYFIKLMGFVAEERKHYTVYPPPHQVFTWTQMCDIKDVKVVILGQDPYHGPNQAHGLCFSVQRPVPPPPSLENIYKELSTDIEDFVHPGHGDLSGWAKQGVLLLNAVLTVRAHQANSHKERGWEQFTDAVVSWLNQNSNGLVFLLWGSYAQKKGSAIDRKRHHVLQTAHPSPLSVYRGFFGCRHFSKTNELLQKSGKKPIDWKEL
Description: Inhibition of UNG by quantifying inhibition of UNG-mediated cleavage and dissociation of quenched duplex DNA oligonucleotides, measured as fluorescence at 594 nm. To generate a functional strand incision and increase turn-over this assay is coupled to APE1.

[9] = molecular target: T3, Endonuclease III-like protein 1 (Homo sapiens) (UniProt P78549); details: Compound Concentration 10.0 uM, Hit No;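 further: enzyme assay tracking NTHL1 cutting and release of a quenched double-stranded DNA oligo substrate, read as fluorescence at 594 nm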
T3 sequence (whole entry): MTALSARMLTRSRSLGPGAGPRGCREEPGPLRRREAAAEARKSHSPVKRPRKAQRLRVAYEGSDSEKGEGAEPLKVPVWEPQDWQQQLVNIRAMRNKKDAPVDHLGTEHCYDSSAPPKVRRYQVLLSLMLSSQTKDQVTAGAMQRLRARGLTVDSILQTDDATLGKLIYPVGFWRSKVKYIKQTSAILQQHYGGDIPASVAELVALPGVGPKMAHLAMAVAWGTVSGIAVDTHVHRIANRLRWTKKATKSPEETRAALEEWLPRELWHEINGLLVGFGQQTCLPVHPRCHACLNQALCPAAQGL
Description: Inhibition of NTHL1 by quantifying inhibition of NTHL1-mediated cleavage and dissociation of quenched duplex DNA oligonucleotides, measured as fluorescence at 594 nm.

SMILES	inhibition [1]	inhibition ([2]; Hit No)	inhibition [3]	inhibition [4]	inhibition ([5]; Hit No)	inhibition [6]	inhibition ([7]; Hit Yes)	inhibition ([8]; Hit No)	inhibition [9]	inhibition ([7]; Hit No)	inhibition ([2]; Hit Yes)	inhibition ([8]; Hit Yes)	inhibition ([5]; Hit Yes)
CC(C)c1cc(-c2ccc(F)c3ccccc23)nc(N)n1	5.58%	-9.82%	-7.89%	7.25%	2.18%	-4.83%	–	–	–	–	–	–	–
Cc1ccc(OCC(O)C(C)NC(C)C)c2c1CCC2 (centres undefined)	7.65%	–	8.49%	-0.983%	-9.41%	6.31%	134%	–	–	–	–	–	–
CCOc1ccc(Cc2nc3cc(C(=O)N(CC)CC)ccc3n2CC2CCCCC2)cc1	2.91%	2.19%	2.76%	4.01%	9.81%	-2.6%	–	-9.77%	–	–	–	–	–
OCc1cc(C(O)CNCCCCCCOCCCCc2ccccc2)ccc1O (centres undefined)	8.39%	–	6.25%	4.01%	-5.95%	0.951%	–	-9.38%	11.4%	–	–	–	–
C[C@H](CO)Nc1nc(SCc2cccc(Cl)c2F)nc2[nH]c(=O)sc12	8.99%	6.22%	22%	-2.98%	5.5%	2.92%	–	-8.73%	–	13.6%	–	–	–
COc1ccccc1N1CCN(CCCCNC(=O)c2ccc3ccccc3c2)CC1	4.99%	–	10.4%	11%	9.63%	14.3%	–	-4.08%	–	0.789%	–	–	–
CS(=O)(=O)c1ccc(C(=O)Nc2ccc(Cl)c(-c3ccccn3)c2)c(Cl)c1	3.5%	–	6.01%	5.76%	–	3.65%	–	–	-9.8%	–	–	–	–
CC(=O)N[C@H](Cc1ccc2ccccc2c1)C(=O)N[C@H](Cc1ccc(Cl)cc1)C(=O)N[C@H](Cc1cccnc1)C(=O)N[C@@H](CO)C(=O)N[C@@H](Cc1ccc(NC(=O)[C@@H]2CC(=O)NC(=O)N2)cc1)C(=O)N[C@H](Cc1ccc(NC(N)=O)cc1)C(=O)N[C@@H](CC(C)C)C(=O)N[C@@H](CCCCNC(C)C)C(=O)N1CCC[C@H]1C(=O)N[C@H](C)C(N)=O (Ac-[d2Nal][dPhe(4-Cl)][d3Pal]S[Phe(4-NH2)](Dihydroorotyl(S))[dPhe(4-NHCONH2)]L[Lys(iPr)]P[dA]-NH2)	–	–	56.9%	25.7%	–	22.6%	–	–	7.79%	–	53.4%	86.3%	98.4%
CC[C@@H](C)Nc1nc(C)nc2c(-c3ccc(OC)nc3C)c(C)nn12	4.1%	10.2%	17.1%	2.26%	-1.59%	9.17%	–	-5.14%	–	8.63%	–	–	–
CC1CCN(CC[C@H]2CCCN2S(=O)(=O)c2cccc(O)c2)CC1	8.25%	3.5%	2.43%	-5.22%	-3.4%	-7.22%	–	-9.71%	–	6.36%	–	–	–
Nc1nc(-c2ccco2)c2cnn(Cc3ccccc3F)c2n1	-2.72%	–	-4.93%	–	–	-1.21%	–	-7.72%	–	-3.33%	–	–	–
Cc1csc2c(N[C@@H](C)CN3CCN(S(=O)(=O)c4ccc(Cl)c(Cl)c4)CC3)ncnc12	0.834%	-6.62%	16.4%	-5.22%	-1.28%	-1.59%	–	–	–	–	–	–	–
N#Cc1c(Oc2cccc(OS(=O)(=O)CCCC(F)(F)F)c2)cccc1C(F)(F)F	–	–	-4.05%	-7.74%	-7.69%	8.15%	–	-1.27%	-1.91%	–	–	–	–
Cc1[nH]cnc1CN1CCc2c(c3ccccc3n2C)C1=O	11.2%	3.41%	19%	–	1.31%	3.5%	–	-6.85%	–	11.9%	–	–	–
CC[C@H]1CN2CCc3cc(OC)c(OC)cc3[C@@H]2C[C@@H]1C[C@H]1NCCc2cc(OC)c(OC)cc21	-0.5%	-7.35%	-0.514%	4.51%	–	-9.31%	–	–	3.39%	–	–	–	–
